Where only a bound is given, the exact number is not on record here.

One data set has as its system MC38 cells. Kind of data set: PD-L1 expression in MC38 cells. In kind it is cell-based. Conditions: 24 h.
For data set [1], the system named is MDA-MB-231 cells. Kind of data set: Immunofluorescence of ac-H3. It counts as cell-based, human. Particulars: 1 µM, 24 h. The procedure: Cells (10^5 cells per plate) were seeded in confocal dishes and incubated with drugs or DMSO (equal volume to experimental groups) for 24 h. The medium was removed, and cells were fixed with 4% polyoxymethylene solution for 30 min. The cells were treated with 0.2% Triton X‐100 for 10 min and 1% BSA for 1 h at room temperature. After that, cells were washed twice with TBST and incubated with anti‐H3 antibody (Cell Signal Technology; #13998) at 4°C overnight. When incubation finished, cells were washed five times with TBST and Cy3‐labeled goat anti‐rabbit IgG (Beyotime; #A0516) and DAPI solution (Solarbio) were added. After 1 h incubation and washing five times with TBST, cells were captured with Leica TCS SP8 super‐resolution laser scanning confocal microscope. The colocalization of ac‐H3 and DAPI was analyzed with ImageJ.

The next data set addresses T1, HDAC4 (Homo sapiens, UniProt P56524).
T1 construct: purchased BPS BIOSCIENCE Inc 50004
Description: HDACs enzymatic assay HDAC4. Particulars: Class IIa. In kind it is biochemical. The procedure: (§1) HDACs enzymatic assays were conducted according to our previous work. […] Substrates (Boc‐Lys(acetyl)‐AMC for HeLa nuclear extract, Ac‐Leu‐Gly‐Lys (Tfa)‐AMC for HDAC4, HDAC5, HDAC6, HDAC7, HDAC9, HDAC10, and HDAC11, Boc‐Lys(triflouroacetyl)‐AMC for HDAC8 and Ac‐Leu‐Gly‐Lys(acetyl)‐AMC for HDAC1, HDAC2, HDAC3) were added to the mixture. The blank group was set to no enzyme or drug but contains substrates and the control group was set to no drug but contains substrates and enzymes to each 96‐well plate. After 30 min of incubation at 37°C, the mixture was terminated with 1 mg/mL trypsin and 3 µM TSA. After another 30 min, the fluorescence intensity was measured using a Varioskan plate reader at 360/460 nm. […] The inhibition curves and IC50 values were simulated and calculated using the log(inhibitor) versus response (three parameters) mode in GraphPad Prism software.

Data set [2] concerns MDA-MB-231 cells. Description: Western blotting (immunoblotting). It counts as cell-based, human. Conditions: 24 h. From the text: Anti‐H3 (#13998), anticleaved Caspase‐3 (#9661) and anti‐PARP (#9542) antibody was purchased from Cell Signal Technology (CST). Anti‐Caspase‐3 (T40044) was brought from Abmart. Antitubulin antibody (ab179484) was obtained from Abcam PLC. Anti‐Bcl‐2 (F0125) and anti‐Bax (F0037) antibody were purchased from Selleck Chemicals. Anti‐GAPDH antibody (AF1186) was obtained from Beyotime Inc. The protocol of Western blotting was the same as our previous works. In brief, 2.5 × 10^5 MDA‐MB‐231 cells were treated with different drugs or DMSO (equal volume to experimental groups) for 24 h and lysed with modified RIPA buffer. The cell lysates were added to loading buffer (Beyotime #P0015L) and heated in boiling water for 5 mins and then, together with biomarker (Epizymebiotech; 15–250 kDa), were electrophoresed in SDS‐PAGE gels under 80 V voltage until the biomarker reached the end of gels. Next, SDS‐PAGE gels and PVDF membrane were clipped together to perform transmembrane procedure under 350 mA currency for 1 h. Then after incubation with 5% skim milk, TBST, primary antibody and secondary antibody, the PVDF membrane was treated with ECL chemiluminescence solution (Boster Biological Technology #AR1174) and imaged by the imager (Imager 680 Amersham Imager).
On the technique in general: A western blot detects proteins with antibodies after separation by electrophoresis.

The subject of data set [3] is MDA-MB-231 cells. Description: EdU assay. It counts as cell-based, human. Particulars: MDA-MB-231, 2 µM, 24 h. On the procedure: The EdU assay is performed by BeyoClick EdU kit. MDA‐MB‐231 cells were cultured in a 6‐well plate overnight. […] Following labeling, cells are fixed with 4% PFA for 15 min, washed three times with wash buffer, and permeabilized using 0.3% Triton X‐100 for 15 min. After another wash, endogenous peroxidases are blocked for 20 min. For detection, a click reaction mix (containing Biotin Azide, CuSO4, and click additive) is added and incubated for 30 min. After washing, streptavidin–HRP is applied and reacted for 30 min, followed by 5 min DAB substrate incubation. Finally, cells are washed, optionally counterstained, and imaged under a microscope.

The target of the next data set is HDAC3/NCOR1 complex (Homo sapiens, UniProt O15379). Description: HDACs enzymatic assay HDAC3. In kind it is biochemical. Particulars: Class I; mean ± SD of three. The procedure: as §1
Data set [4] is described as follows: In vivo pharmacokinetic study. Conditions: Sprague-Dawley, rat, plasma, male SD rats. The procedure:
The compound was prepared in a 1 mg/mL working solution using DMSO/solutol/saline. SD rats (6–8 weeks old, 180–200 g, male) were purchased from Beijing HFK Bioscience Co., Ltd. (Beijing, China) and fed in accordance with the guidelines for the care and use of laboratory animals of the ethical committee of Shandong University. The doses were 2.5 mg/kg (i.v.) and 10 mg/kg (i.g.), with three animals per treatment group. Blood samples were collected from the jugular vein at different time points using heparin sodium anticoagulation tubes. After anesthetizing rats with ether, blood samples were placed in an ice water mixture for 15 min, then centrifuged at 3000×g for 3 min to separate the plasma, and stored at −20°C. The LC–MS/MS was used to detect the concentration of the analyte at each time point, and the pharmacokinetic parameters were calculated using WinNolin8.2 software.

The target in the next data set is T2, HDAC2 (Homo sapiens, UniProt Q92769).
T2 construct: purchased BPS BIOSCIENCE Inc 50052
Kind of data set: HDACs enzymatic assay HDAC2. In kind it is biochemical. Conditions: Class I; mean ± SD of three. The procedure: as §1

The subject of data set [5] is MDA-MB-231 cells. Kind of data set: GreenNuc assay for caspase-3 activation. It counts as cell-based, human. Particulars: MDA-MB-231, 24 h. The procedure: Caspase‐3 activation was detected with the GreenNuc caspase‐3 assay kit for live cells (Beyotime Inc). Cells (10^5 cells per well) were seeded in black 96‐well plates and treated with different concentrations of compounds. After 24 h, the medium was discarded, and cells were treated with GreenNuc caspase‐3 substrate at room temperature for 30 min. Fluorescence intensity was measured using a Varioskan plate reader at 485/515 nm, and the final activation folds were calculated.

T1 sequence (P56524 whole entry): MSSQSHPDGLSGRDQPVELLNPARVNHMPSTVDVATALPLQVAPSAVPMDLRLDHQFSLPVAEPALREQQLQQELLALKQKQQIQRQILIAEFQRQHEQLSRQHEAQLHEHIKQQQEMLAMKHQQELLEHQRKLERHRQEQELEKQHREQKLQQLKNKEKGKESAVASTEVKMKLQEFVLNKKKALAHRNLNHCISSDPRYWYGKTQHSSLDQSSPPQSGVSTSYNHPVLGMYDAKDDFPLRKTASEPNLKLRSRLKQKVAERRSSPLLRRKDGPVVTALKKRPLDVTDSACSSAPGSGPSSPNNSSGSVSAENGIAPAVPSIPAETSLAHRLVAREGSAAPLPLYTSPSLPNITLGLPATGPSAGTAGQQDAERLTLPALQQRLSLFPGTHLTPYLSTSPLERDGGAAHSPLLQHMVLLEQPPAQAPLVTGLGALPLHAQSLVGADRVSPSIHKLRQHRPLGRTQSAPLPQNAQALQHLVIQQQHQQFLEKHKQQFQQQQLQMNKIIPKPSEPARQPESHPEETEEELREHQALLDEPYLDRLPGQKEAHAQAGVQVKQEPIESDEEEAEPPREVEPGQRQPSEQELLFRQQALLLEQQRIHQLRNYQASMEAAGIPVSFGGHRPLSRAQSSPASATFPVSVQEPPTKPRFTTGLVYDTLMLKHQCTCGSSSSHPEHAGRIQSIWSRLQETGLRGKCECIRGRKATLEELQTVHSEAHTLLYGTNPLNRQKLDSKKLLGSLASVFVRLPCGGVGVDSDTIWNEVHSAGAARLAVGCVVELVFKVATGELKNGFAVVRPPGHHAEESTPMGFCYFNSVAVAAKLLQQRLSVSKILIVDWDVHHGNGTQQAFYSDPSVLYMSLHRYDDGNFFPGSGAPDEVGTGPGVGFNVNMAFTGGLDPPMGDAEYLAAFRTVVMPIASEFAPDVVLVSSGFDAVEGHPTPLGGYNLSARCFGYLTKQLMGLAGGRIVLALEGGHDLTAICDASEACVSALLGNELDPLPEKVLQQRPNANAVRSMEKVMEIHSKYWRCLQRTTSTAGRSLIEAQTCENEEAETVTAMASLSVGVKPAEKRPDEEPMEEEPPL
T2 sequence (Q92769 whole entry): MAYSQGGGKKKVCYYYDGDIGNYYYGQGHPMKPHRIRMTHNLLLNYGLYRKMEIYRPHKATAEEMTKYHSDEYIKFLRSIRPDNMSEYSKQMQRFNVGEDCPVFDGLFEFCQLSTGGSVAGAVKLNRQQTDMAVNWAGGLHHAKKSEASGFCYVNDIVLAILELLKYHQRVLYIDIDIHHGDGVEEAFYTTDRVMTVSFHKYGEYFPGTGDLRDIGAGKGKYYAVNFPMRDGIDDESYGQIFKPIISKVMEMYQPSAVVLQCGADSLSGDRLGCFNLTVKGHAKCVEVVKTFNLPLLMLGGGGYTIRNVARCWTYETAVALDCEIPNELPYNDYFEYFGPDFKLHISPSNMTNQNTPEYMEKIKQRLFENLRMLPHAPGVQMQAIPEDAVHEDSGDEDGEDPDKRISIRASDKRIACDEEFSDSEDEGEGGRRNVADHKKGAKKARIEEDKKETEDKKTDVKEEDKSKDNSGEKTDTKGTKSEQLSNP
Chain of HDAC3/NCOR1 complex (O15379 whole entry): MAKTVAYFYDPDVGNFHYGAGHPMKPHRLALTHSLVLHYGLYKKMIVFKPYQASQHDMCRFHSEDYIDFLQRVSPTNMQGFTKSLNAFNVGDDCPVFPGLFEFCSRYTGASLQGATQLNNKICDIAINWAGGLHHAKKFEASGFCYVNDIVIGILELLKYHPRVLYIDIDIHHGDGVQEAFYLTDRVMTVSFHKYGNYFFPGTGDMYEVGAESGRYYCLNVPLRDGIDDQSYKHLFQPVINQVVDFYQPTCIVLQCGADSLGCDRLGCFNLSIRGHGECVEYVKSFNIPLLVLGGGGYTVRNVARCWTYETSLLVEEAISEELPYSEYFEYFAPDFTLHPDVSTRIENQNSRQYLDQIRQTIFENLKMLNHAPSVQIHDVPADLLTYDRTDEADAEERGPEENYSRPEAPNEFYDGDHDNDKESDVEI
Chain of HDAC3/NCOR1 complex (Q9Y618 395-489 partner): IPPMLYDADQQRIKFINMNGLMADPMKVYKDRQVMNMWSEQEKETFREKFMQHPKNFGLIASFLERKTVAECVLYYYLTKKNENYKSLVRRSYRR

As to `O=C(CCCCCCNC(=O)c1cc(OCCc2ccccc2)c2ccccc2n1)NO` [SDFZ-8], the “expression level of PD-L1” value with MC38 cells is recorded as “increased”. In addition, the “immunofluorescence intensities of ac-H3” value with MDA-MB-231 cells [1] is given as “notably stronger than those of cells treated with SAHA”. Also, the IC50 (usually the concentration that gives 50% inhibition) on HDAC4 was more than 10 µM. Also, in the data set on MDA-MB-231 cells [2], the “antiapoptotic protein Bcl-2 expression” value was “downregulating”; the “levels of cleaved caspase-3 and cleaved PARP” value is on record as “increase”; the “proapoptotic protein Bax expression” value is “upregulated”. For the same compound, in the data set on MDA-MB-231 cells [2] (western blotting), the “level of acetylated histone H3 (Ac-H3)” value is “upregulation” and the “level of acetylated tubulin (Ac-tubulin)” value is on record as “upregulation”. For the same compound, in the data set on MDA-MB-231 cells [3], the EdU positive cells result was “decreased”. At HDAC3/NCOR1 complex, 0.3 ± 0.1 µM corresponded to half-maximal inhibition (IC50). In addition, in [4] (iv, i.v. 2.5 mg/kg), the AUC(0-inf) (commonly the area under the concentration-time curve extrapolated to infinity) worked out at 3120 ± 242 ng·h/mL; the AUC(0-t) (in general, the area under the concentration-time curve up to a stated or last time point) turned out to be 2730 ± 260 ng·h/mL; the highest concentration (Cmax) (as a rule, the maximum level reached in the sampled fluid or tissue) was found to be 1750 ± 498 ng/mL; the Tmax (commonly the time from dosing to the highest level) amounted to 0.08 ± 0.01 h. The half-life – broadly, the time needed for the level to fall by half in the phase considered – in data set [4] (iv, i.v. 2.5 mg/kg) was 2.29 ± 1.24 h. In addition, the bioavailability (commonly dose-corrected exposure relative to a reference, in per cent) in [4] (oral, i.g. 10 mg/kg vs i.v. 2.5 mg/kg, read-out: F% (oral bioavailability)) was 26.1%. Moreover, in [4] (po, i.g. 10 mg/kg), the AUC(0-inf) turned out to be 3260 ± 663 ng·h/mL, the AUC(0-t) came to 3080 ± 206 ng·h/mL, the concentration peaked (Cmax) at 659 ± 63.1 ng/mL and the Tmax stood at 0.33 ± 0.14 h. This compound also showed a half-life in [4] (po, i.g. 10 mg/kg) of 5.74 ± 1.51 h. Further, the midpoint of inhibition against HDAC2, the IC50, lay at 0.0058 ± 0.0015 µM. The caspase-3 activation entry with MDA-MB-231 cells [5] is “significantly higher than that observed for SAHA”.

The record behind these values is article PMC12627232 (MedComm, 2025).
